Experimental data reported in a melting point compilation (Tetko et al.; mined from patent text by program, amines drawn as free bases though some values may be those of a salt).

| Compound | melting point [°C] |
| --- | --- |
| CC(=O)N1CCN(c2cc3nc(C(C)(C)C)sc3cc2N)CC1 | 182 to 185 |
| CCC(=O)OCC(OC(=O)CC)C1OC(SC)C(OC(=O)CC)C1OC(=O)CC (stereo not given) | 62 to 63 |
| Fc1cc(Br)c(OCc2ccccc2)c(Br)c1 | 83 |
| Nc1nc(Cl)cc(OC(F)F)n1 | 118 to 119 |
| CC1(C)CCC(C)(C)c2cc(OCc3ccc(CC(N)=O)cc3)ccc21 | 202 to 205 |
| CC(C)CCC(=O)CC1c2ccccc2C(=O)N1c1ccc2ccc(Cl)nc2n1 (stereo not given) | 172 |
| Cc1ccc(C(=O)Nc2cn(C3CCCCO3)nc2C(=O)NCCC#N)cn1 (stereo not given) | 118 to 120 |
| CN(C)CCc1cccc2ccc(CS(=O)(=O)N3CCOCC3)cc12 | 114 to 117 |
| N#Cc1c(N)[nH]c2c1COc1ccccc1-2 | 216 to 217 |
| CC(C)(C)COc1c(-c2ccc(S(N)(=O)=O)c(F)c2)cnn(CC(F)(F)F)c1=O | 144 to 145 |
| FC(F)c1nc2ccccc2n1-c1nc(Nc2cnc3ccccc3c2)nc(N2CCOCC2)n1 | 270 to 273 |
| CCOC1=C(C)C(=O)C(C)(C)CC1 | 104 to 106 |
| O=C(O)C(=NO)C(c1ccc(OCc2ccccn2)cc1)c1ccc(OCc2ccccn2)cc1 | 154 |
| Clc1ccc2c(c1)N(c1ncnc3ccc(N4CCOCC4)cc13)CC2 | 277 to 279 |
| CCc1cc(OCc2ccc(-c3ccccc3-c3nnnn3-c3ccncc3)cc2)c2ccccc2n1 | 155 to 170 |
| Cc1cccc(C)c1C(=O)OC1CCCCC1=O (stereo not given) | 82 to 83 |
| COc1c(-c2cc3c(s2)CCC(CO)=C3)ccc2c(=O)c(C(=O)O)cn(C3CC3)c12 | 205 to 206 |
| O=C(NCCCCO)c1ccc2c(c1)OCO2 | 95 to 98 |
| COCC1(C)CC(n2ccccc2=O)c2cc(C(N)=O)ccc2O1 (stereo not given) | 177 to 179 |
| CCOC1=NC(N)=C(C(=O)OC)C(c2cccc(Cl)c2)C1C(=O)OC (stereo not given) | 158 |
| CCOc1nsc(N)c1C#N | 216 to 217 |
| CCn1c(=O)c2c(nc(/C=C/c3ccc(C)cc3)n2C)n(CC)c1=O | 171 to 172 |
| O=C(C#Cc1ccc(C(=O)O)cc1)Nc1ccccc1 | 271 to 272 |
| COc1cc(C(=O)C(Br)Br)cc(OC)c1OC | 67 to 68 |

| Compound | melting point [°C] |
| --- | --- |
| CCC(CC)N(O)C(=O)NCCCC(C)CNC(=O)N(O)C(CC)CC (stereo not given) | 124 to 125 |
| O=C(c1ccc(F)cc1)N1CCC[C@H](c2noc([C@@H](O)c3ccccc3)n2)C1 | 168 to 172 |
| CCNc1ncc2cc(-c3c(Cl)cccc3Cl)c(=O)n(C)c2n1 | 180 to 182 |
| COc1cc(CCO[Si](C)(C)C(C)(C)C)c(C2=CC3CCC2N3C(=O)OC(C)(C)C)cn1 (stereo not given) | 75 to 76 |
| Cc1cc(-c2ccccc2)n2nc(SC(F)(F)F)nc2n1 | 91 to 93 |
| C#CCn1c(-c2ccc(OC)cc2)c([N+](=O)[O-])c2ccc(OC)cc2c1=O | 162 to 164 |
| O=C(O)c1ccc(OCCCCCCc2ccc3cc(O)c(O)cc3c2)cc1O | 190 to 192 |
| O=C(COc1cccc(-n2nc(-c3ccc(F)cc3)c3cccnc32)c1)N1CCOCC1 | 141 to 143 |
| CC1CCC(C(=O)Nc2ccc(-c3ncc(-c4ccc(NC(=O)C5CCCCCC5)cc4)[nH]3)cc2)CC1 (stereo not given) | 244 to 246 |
| COC(=O)c1ccccc1S(=O)(=O)NC(=O)Nc1nc(C)cc(OC)n1 | 173 to 179 |
| O=C(CCNc1c(C(=O)O)[nH]c2cc(Cl)cc(Cl)c12)c1cccc(F)c1 | 270 to 280 |
| CC(C)C[C@H](NC(=O)OCc1ccccc1)C(=O)NC(C)(C)C(=O)CSCc1ccco1 | 80 to 82 |
| CCCCONC(=O)c1nc(-c2ccc(Cl)c(OC)c2F)cc(N)c1Cl | 130 to 132 |
| CCc1cccc(CC)c1NC(=O)C1c2ccccc2COc2c(C)ccc(C)c21 (stereo not given) | 104 to 106 |
| COCC1(OP(=O)(O)O)CCN(c2c(F)cc(N3C[C@H](CNC(C)=O)OC3=O)cc2F)CC1 | > 140 |
| CC(=NO)c1ccc(N)c(S(N)(=O)=O)c1 | 230 to 233 |
| C(=Cc1cccnc1)c1ccc(C2OCCO2)cc1 | 117 to 119 |
| CC(C)(C)N(NC(=O)c1ccccc1)C(=O)c1ccco1 | 155 to 175 |
| Cc1c(C(=O)Nc2ccc(N3CCC(N(C)C)CC3)c(C#N)c2)cnn1-c1ccc(Cl)cc1 | 210 to 213 |
| CNc1ccc(C23CC2C(=O)N(C)C3=O)cc1 (stereo not given) | 128 to 129 |
| CC(C)(O)CCc1cc(F)c2ncc(C(=O)NCc3ccc(Cl)cc3)c(O)c2c1 | 219 to 222 |
| O=c1[nH]c2ccccc2c(=O)cc1N(CCO)CCO | 204 to 205 |
| CCc1cnc(N2CCN(C(=O)c3ccccc3NC3(c4ccccc4)NC=Nc4ccccc43)CC2)nc1 (stereo not given) | > 250 |
| COc1ccc2[nH]nc(N3CCN(C[C@@H](O)COc4cccc(-c5noc6ccsc56)c4)CC3)c2c1 | 84 to 86 |

| Compound | melting point [°C] |
| --- | --- |
| CC(C)n1nc(-c2nc(C#N)c(N)nc2-c2ccccc2)ccc1=O | 231 to 233 |
| CCOC(=O)[C@H](Cc1ccc(-c2c(C)n(C)c(=O)n(C)c2=O)cc1)NC(=O)c1c(Cl)cccc1Cl | 262 to 265 |
| COCC(C(=O)O)N(CCN(CC(=O)O)C(COC)C(=O)O)CC(=O)O (stereo not given) | 215 |
| CC(=O)N1CCC(Nc2ncc3cc(-c4ccccc4C)c(=O)n(C4CCOCC4)c3n2)CC1 | 235 to 237 |
| CN1CCN(c2ccccc2C=C2CCN(c3ccc(Cl)c(Cl)c3)C2=O)CC1 | 177 to 179 |
| Clc1ccc(-c2nnnn2Cc2cccnc2)cc1Cl | 166 to 168 |
| CCc1nc2c(N)nc3cccnc3c2n1CC1(O)CCOCC1 | > 250 |
| COc1c(NC(=O)c2ccc(C)c(-n3cc(C(=O)NCc4cccnc4)cn3)c2)cc(C(C)(C)C)cc1NS(C)(=O)=O | 127 to 133 |
| O=C(CNc1ccc(Cl)cc1)NCCc1ccc(OCc2ccccc2)c(OCc2ccccc2)c1 | 121 |
| C[Si](C)(C)N1C(=O)c2ccccc2S1(=O)=O | 90 to 92 |
| Cc1nc(C(=O)N(C)C)c2n1-c1ccc(Cl)cc1C(c1ccccc1F)=NC2 | 158 to 160 |
| C=CCOc1ccc(COc2ccc(CC(=O)O)cc2Cl)cc1Cl | 132 to 134 |
| CCOC(=O)c1c(CN(CC)CC)nc2sc3c(c2c1-c1ccc(OC)c(OC)c1)CCN(C(=O)c1ccc(Cl)cc1)C3 | 96 to 98 |
| O=[N+]([O-])c1ccc(Cl)c(C=NNc2c(Cl)cc(Cl)cc2Cl)c1 | 113 to 116 |
| Cc1cc2ncnn2nc1OCC(C)(C)CS(N)(=O)=O | 216 to 218 |
| CCc1cccc(CC)c1NC(=O)Nc1cnc(C)nc1-c1ccccc1Cl | 186 to 187 |
| C=CCn1c(-c2cccc(Cl)c2[N+](=O)[O-])nc2ccccc21 | 148 to 150 |
| C=C[C@H](Cc1ccccc1)NC(=O)OCc1ccccc1 | 87 to 88 |
| CCCCCOc1cc(C(=O)O)cc(N)c1C(=O)c1ccccc1 | 168 to 170 |
| CN(C)Cc1cc(C(C)(C)C)cc(C(C)(C)C)c1O | 54 to 56 |
| COC(=O)c1nc(-c2ccccc2)ccc1Oc1nc(OC)cc(OC)n1 | 92 to 94 |
| CCOC1OC(=O)CC1NC(=O)C1CCCN1C(=O)C(NC(=O)c1ccc(N)c(Cl)c1)C(C)(C)C (stereo not given) | 96 to 99 |
